From patent publication US10107794B2, “Methods of using U2-OS cells to identify potential sweet taste modulators” (PepsiCo, Inc., priority 2013, dated 2018)

Key:
Format in all cases: cell-based
sweet receptor T1R2/T1R3 [1] = target: T1, sweet receptor T1R2/T1R3 (Homo sapiens, UniProt Q7RTX0+Q8TE23); assay: pERK1/2 assay in parental U2-OS cells (high content imaging); conditions: 100 mM, 5, 15 and 30 minutes
T1 construct: Formation of green fluorescent vesicles in TRANSFLUOR U2-OS cells transfected with BacMam encoding Gα15; endogenous in cells; host or cells: TRANSFLUOR U2-OS cells stably expressing β-arrestin-GFP, transfected with BacMam Gα15
T1 sequence (Q8TE23 20-839): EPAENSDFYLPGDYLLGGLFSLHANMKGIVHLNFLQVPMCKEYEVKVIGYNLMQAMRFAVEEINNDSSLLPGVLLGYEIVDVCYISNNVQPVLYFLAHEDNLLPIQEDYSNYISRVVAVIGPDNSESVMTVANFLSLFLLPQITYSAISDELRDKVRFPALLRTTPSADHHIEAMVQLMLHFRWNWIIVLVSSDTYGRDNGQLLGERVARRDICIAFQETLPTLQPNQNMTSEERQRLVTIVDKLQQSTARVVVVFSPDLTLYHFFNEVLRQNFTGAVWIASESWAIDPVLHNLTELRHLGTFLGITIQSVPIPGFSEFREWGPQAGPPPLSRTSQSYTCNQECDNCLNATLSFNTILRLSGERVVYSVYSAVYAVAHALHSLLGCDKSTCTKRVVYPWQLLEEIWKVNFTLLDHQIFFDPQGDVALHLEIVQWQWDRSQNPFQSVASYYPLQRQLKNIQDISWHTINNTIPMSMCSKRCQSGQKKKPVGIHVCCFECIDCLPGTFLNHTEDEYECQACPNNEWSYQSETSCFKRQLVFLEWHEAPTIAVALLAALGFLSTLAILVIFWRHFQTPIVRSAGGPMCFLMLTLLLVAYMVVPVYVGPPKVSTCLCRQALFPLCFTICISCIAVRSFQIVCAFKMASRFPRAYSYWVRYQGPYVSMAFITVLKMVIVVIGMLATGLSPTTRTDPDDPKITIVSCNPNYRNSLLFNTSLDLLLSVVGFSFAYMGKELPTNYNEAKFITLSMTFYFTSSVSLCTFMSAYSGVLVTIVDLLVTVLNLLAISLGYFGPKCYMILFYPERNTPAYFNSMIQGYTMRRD
T1 sequence (Q7RTX0 21-852): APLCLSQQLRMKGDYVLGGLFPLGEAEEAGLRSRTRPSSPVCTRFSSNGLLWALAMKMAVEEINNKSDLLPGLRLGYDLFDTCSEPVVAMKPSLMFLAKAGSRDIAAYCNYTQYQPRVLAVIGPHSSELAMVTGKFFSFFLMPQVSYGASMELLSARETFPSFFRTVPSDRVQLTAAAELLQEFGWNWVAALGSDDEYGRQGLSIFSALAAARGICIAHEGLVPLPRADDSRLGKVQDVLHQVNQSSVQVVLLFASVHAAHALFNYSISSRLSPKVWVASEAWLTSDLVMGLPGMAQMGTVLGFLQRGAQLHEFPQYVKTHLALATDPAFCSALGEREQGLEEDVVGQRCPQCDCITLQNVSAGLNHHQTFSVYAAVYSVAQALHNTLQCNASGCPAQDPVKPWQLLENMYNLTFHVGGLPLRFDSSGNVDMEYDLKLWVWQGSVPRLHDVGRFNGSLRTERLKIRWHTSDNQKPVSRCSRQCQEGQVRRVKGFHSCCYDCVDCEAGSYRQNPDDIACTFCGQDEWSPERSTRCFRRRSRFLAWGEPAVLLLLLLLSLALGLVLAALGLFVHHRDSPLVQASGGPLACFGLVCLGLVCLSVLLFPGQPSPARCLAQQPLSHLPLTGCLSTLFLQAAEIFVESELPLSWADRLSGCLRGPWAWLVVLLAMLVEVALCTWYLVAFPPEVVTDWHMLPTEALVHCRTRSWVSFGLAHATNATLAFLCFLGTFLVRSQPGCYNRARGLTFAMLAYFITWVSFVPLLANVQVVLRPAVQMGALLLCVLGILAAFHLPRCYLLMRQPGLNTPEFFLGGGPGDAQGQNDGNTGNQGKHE
Description: U2-OS cells were grown in McCoy media supplemented with 10% fetal bovine serum. Cells were seeded at density of 5,000 cells/well on PDL-coated 384-well plates.
For pERK1/2 studies, growth media was replaced with media without serum for 2 h. […] (20 mM). Control groups of cells also received DMSO (0.1%) in medium. […] Images were acquired on an ImageXpressMicro (MDC) and analyzed with MWCS Module.
(§1) The phosphorylation of ERK1/2 is a common downstream event following GPCR activation via the PLCβ2-IP3 pathway. Growth media was replaced with Dulbecco's phosphate buffered saline (DPBS) without serum for 2 h. […] For each data point, average of Mean Cell Integrated intensity and standard deviation are calculated from quadruplicate data points.

sweet receptor T1R2/T1R3 [2] = target: T1, sweet receptor T1R2/T1R3; assay: pERK1/2 assay in U2-OS cells transfected with Gα15; conditions: for pERK1/2 activation: U2-OS cells overexpressing Gα15 (6 μl/40,000 cells), 100 mM
Description: (§2) U2-OS cells were transiently transfected with 0.5-12 μl of BacMam encoding G protein, gustducin (Gα15, Gα16gust44) per 40,000 cells during 24 h or 48 h. Transfected cells were seeded at density of 5,000 cells/well on PDL-coated 384-well plates.
For pERK1/2 studies, growth media was replaced with media without serum for 2 h. U2-OS cells were treated with 100 mM Sweet compounds with or without of U73122 (10 μM) and with or without […] (20 mM). Control groups of cells also received DMSO (0.1%) in medium. The fixed cells were stained with rabbit anti-phospho-p44/p42 MAPK (pERK1/2) antibodies from Cell Signaling Technologies, then with secondary Alexa 488-conjugated antibodies (Life Technology) and HOECHST 33342. Images were acquired on an ImageXpressMicro (MDC) and analyzed with MWCS Module.
as §1, with “points. […]” for “points.”

sweet receptor T1R2/T1R3 [3] = target: T1, sweet receptor T1R2/T1R3; assay: Calcium assay (FLIPR) in U2-OS cells transfected with Gα15; conditions: U2-OS transfected with Gα15 BacMam; 100 mM
Description: as §2
Calcium traces in Fluo-4AM loaded cells were recorded over time in FLIPR^Tetra (MDC) with λEX=470-495 nm and λEM=515-575 nm. The peak increase in fluorescence over baseline was determined and is expressed as relative fluorescence units (RFU).

[4] = target: T2, sweet taste receptor T1R2/T1R3/Gα15 (Homo sapiens, UniProt Q7RTX0+Q8TE23); assay: Calcium assay (FLIPR) in JUMP-IN T-REX U2-OS cells with doxycycline-inducible T1R2/T1R3/Gα15; conditions: U73122
T2 construct: expressed in transfected cells; host or cells: JUMP-IN T-REX U2-OS cells
T2 sequence (Q8TE23 20-839): T1 sequence (Q8TE23 20-839)
T2 sequence (Q7RTX0 21-852): T1 sequence (Q7RTX0 21-852)
Description: JUMP-IN T-REX U2-OS cells were transfected with the PJTI-R4EXP-CMV-TO-T1R3/T1R2/Gα15-pA and JTI-R4 Integrase vectors (Life Technology).
The peak increase in fluorescence over baseline was determined and is expressed as relative fluorescence units (RFU).

SMILES | Ca2+ response (sweet receptor T1R2/T1R3 [3]) | pERK1/2 activation (sweet receptor T1R2/T1R3 [2]) | also measured
COc1ccc2c(c1)CC[C@@H]1[C@@H]2CC[C@]2(C)[C@@H](NCCCCCCN3C(=O)C=CC3=O)CC[C@@H]12 [U73122] | – | – | Blockade of pERK1/2 activation (sweet receptor T1R2/T1R3 [2]; U73122 10 μM, U2-OS cells transfected with Gα15): blocked; Effect on Ca2+ release upon treatment with D-glucose and D-fructose [4]: abolished; Effect on Ca2+ response after stimulation with sucrose and sucralose [4]: had no effect
OC[C@H]1O[C@H](O[C@]2(CCl)O[C@H](CCl)[C@@H](O)[C@@H]2O)[C@H](O)[C@@H](O)[C@H]1Cl [sucralose] | induced Ca^(2+) response | – | –
OC[C@H]1O[C@H](O[C@H]2[C@H](O)[C@@H](O)C(O)O[C@@H]2CO)[C@H](O)[C@@H](O)[C@@H]1O (mixture of isomers) [maltose] | – | increased pERK1/2 activity | –

More lines, main results first:

Ca2+ response (sweet receptor T1R2/T1R3 [3]) | SMILES | pERK1/2 activation (sweet receptor T1R2/T1R3 [2]) | also measured
significantly increased Ca^(2+) response | O=C[C@H](O)[C@@H](O)[C@H](O)[C@H](O)CO [D-glucose] | induced pERK1/2 activation in a time-dependent manner | pERK1/2 activation (sweet receptor T1R2/T1R3 [1]): induced pERK1/2 activation in a time-dependent manner; pERK1/2 activation (sweet receptor T1R2/T1R3 [1]; listed as glucose): activates pERK1/2; pERK1/2 activation (sweet receptor T1R2/T1R3 [2]; listed as glucose): increased pERK1/2 activity
significantly increased Ca^(2+) response | O=C(CO)[C@@H](O)[C@H](O)[C@H](O)CO [D-fructose] | – | –
significantly increased Ca^(2+) response | OC[C@H]1O[C@@](CO)(O[C@H]2O[C@H](CO)[C@@H](O)[C@H](O)[C@H]2O)[C@@H](O)[C@@H]1O [sucrose] | – | –
